Data as given in patent US20230095495A1, “SKIN CONDITIONING COMPOSITION WITH HIGH CONCENTRATION OF UREA TO BOOST THE SKINCARE ACTIVES” (L'OREAL, priority 2021, published 2023).

Assays:
[1] = system: stratum corneum; test: In vitro stratum corneum comparison of ΔT by differential scanning calorimetry (DSC); conditions: variation of INV #1 applied first without rinsing, then hydroxy-acid based peel moisturizer; compared to peel moisturizer alone
Experimental: In studies, the effect of urea at various concentrations and using hydroxyethyl urea (HEU) was according to INV #1 (40% urea, 5% glycine, 0.7% triacetin, buffer) in which the amount and form of urea was varied. […] Studies were conducted with each of the tested compositions to evaluate effect of the compositions on the stratum corneum.
In Vitro Stratum Corneum Comparison of Δ T using differential scanning calorimetry (DSC) is used to characterize the stability of a protein or other biomolecule directly in its native form. It does this by measuring the heat change associated with the molecule's thermal denaturation when heated at a constant rate. Compositions were evaluated on SC samples according to the following procedure. Stratum corneum samples were equilibrated at 75% relative humidity (RH) overnight. Inventive and Comparative Compositions and control treatments applied on SC surface (0.1 g/sample) for 15 min in 75% RH. The SC surface was wiped clean and rinsed with DI water. Allow to dry in 75% RH overnight. The DSC profile was measured from 20° C. to 120° C. at 5° C./min.
As an initial step, each test composition was applied first to skin without rinsing, followed by application of a hydroxy-acid based peel composition in a moisturizer form.

[2] = acute oral toxicity, mutagenicity, skin irritation, skin sensitization, phototoxicity; cited from earlier work

| SMILES | desquamation evidenced by stratum corneum disorganization, with increased amounts [1] | adverse effects in basic toxicological tests [2] |
| --- | --- | --- |
| NC(N)=O [urea] | increased desquamation |  |
| NC(=O)NCCO [hydroxyethyl urea] | increased desquamation |  |
| CC(c1ccccc1)c1ccc(O)cc1O (stereo not drawn) [Phenylethyl resorcinol, phenylethyl resorcinol] |  | has not shown adverse effects |
